One experiment has as its target T1, LXRβ-LBD (Homo sapiens, UniProt P55055).
T1 construct: expressed in transfected cells; host or cells: Huh7 (printed 'Hhu7') human liver cell line
T1 sequence (P55055 222-460 limits assumed): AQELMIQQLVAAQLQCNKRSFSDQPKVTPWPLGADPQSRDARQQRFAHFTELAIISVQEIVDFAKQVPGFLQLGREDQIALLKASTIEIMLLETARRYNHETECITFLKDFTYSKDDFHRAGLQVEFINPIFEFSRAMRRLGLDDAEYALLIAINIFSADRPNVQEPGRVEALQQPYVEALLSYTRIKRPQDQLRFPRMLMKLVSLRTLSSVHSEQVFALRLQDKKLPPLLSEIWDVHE
Briefly: Mammalian two-hybrid assay, RAP250-Del4 with pVP16-LXRβ-LBD. Type of experiment: cell-based. The settings on record: ligand alone, 10 µM; Huh7 cells.

Another experiment has as its target T2, LXRα-LBD (Homo sapiens, UniProt Q13133).
T2 construct: expressed in transfected cells; host or cells: Huh7 (printed 'Hhu7') human liver cell line
T2 sequence (Q13133 209-447 limits assumed): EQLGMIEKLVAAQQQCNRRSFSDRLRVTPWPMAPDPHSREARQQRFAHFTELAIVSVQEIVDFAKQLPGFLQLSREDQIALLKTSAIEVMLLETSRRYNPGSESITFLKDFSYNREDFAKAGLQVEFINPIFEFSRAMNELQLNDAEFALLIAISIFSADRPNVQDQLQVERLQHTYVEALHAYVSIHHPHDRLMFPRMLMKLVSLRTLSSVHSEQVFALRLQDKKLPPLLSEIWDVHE
Briefly: Mammalian two-hybrid assay, RAP250-Del4 with pVP16-LXRα-LBD. The format is cell-based. The settings on record: ligand alone, 10 µM; Huh7 cells.

The target of another experiment is T3, LXRα (Homo sapiens, UniProt Q13133).
T3 construct: expressed in transfected cells; host or cells: HEK293
T3 sequence (Q13133 1-447): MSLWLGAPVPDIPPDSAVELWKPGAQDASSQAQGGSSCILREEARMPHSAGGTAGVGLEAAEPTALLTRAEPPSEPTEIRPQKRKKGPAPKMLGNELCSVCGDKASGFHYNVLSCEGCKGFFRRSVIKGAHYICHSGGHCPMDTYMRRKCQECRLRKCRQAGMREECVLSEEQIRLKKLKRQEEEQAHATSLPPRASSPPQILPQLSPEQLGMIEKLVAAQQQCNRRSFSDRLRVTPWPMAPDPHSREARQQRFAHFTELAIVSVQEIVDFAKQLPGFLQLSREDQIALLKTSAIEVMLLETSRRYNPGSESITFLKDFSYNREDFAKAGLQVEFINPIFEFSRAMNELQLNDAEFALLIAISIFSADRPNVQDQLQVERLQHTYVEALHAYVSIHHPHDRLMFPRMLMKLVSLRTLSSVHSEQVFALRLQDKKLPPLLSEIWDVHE
As to the kind of experiment: Luciferase-based reporter assay for LXRα transcriptional activity (HEK293, Gal4-LXRα). Type of experiment: cell-based. The note with it: for antagonism of LXRα activation induced by 22R-HC: 22R-HC 5 or 10 µM, titrating amounts of compound (1-50 µM). As for the experimental part: Reporter assay for nuclear receptor transcriptional activity. Human embryonic Kidney 293 cells (American Type Culture Collection) were cultured in Dulbecco's Modified Eagle's medium containing 10% of fetal bovine serum at 37°C in humidified atmosphere of 5% CO2. HEK293 cells (4×10^4 cells per well) were transiently transfected in 48 well plate with the reporter plasmids pMH100X4-TK-luc (100 ng/300µl), Renilla (22 ng/300µl) together with 100 ng/300µl of pCMX-Gal4-LXRα or pCMX-Gal4-LXRβ plasmids using X-tremeGENE 9 DNA Transfection Reagent (Roche). Six hours after transfection, the cells were treated with the appropriate compound for 24 hours. Luciferase activities were analyzed by luciferase Dual Reporter Assay Systems (Promega) according to the manufacturer's protocol. GAL4-LXRs, and TK-MHC100-luc plasmids were described in^7. […] Six hours after transfection, the cells were treated with the appropriate compound for 40 hours. Luciferase activity was analyzed as described above and protein content spectrophotometrically using Coomassie Plus Protein assay reagent (Thermo Scientific). Quantitative Real-Time-PCR. U937 cell line was differentiated in foam macrophages with phorbol 12-myristate 13-acetate (PMA) 10 ng/ml (Sigma) for 72 hours at 37°C in RPMI 10% FBS. At day 3 T0901317 (10 µM) or different amount of PFM037 (50, 25 and 10 µM) were added for 16 hours. Total RNA was purified by TRIZOL (Invitrogen). Reverse transcription was performed by MLV-reverse transcriptase (Promega). QPCR was performed using SYBR Green Master Mix (Applied Biosystems) and real-time PCR (Viia 7 Real Time PCR System, Applied Biosystems). PCR reactions were done in triplicate.

Experiment [1] has as its system Lewis Lung Carcinoma (LLC). As to the kind of experiment: Treatment of LLC tumor-bearing mice. The format is in vivo. An excerpt:
Tumor challenge experiments.

In a further experiment the test system is RMA lymphoma. Briefly: Treatment of RMA tumor-bearing mice. The settings on record: 300 µg i.v. 5 days/week.
Another experiment relates to LLC tumor cells. As to the kind of experiment: In vitro growth of LLC tumor cells. The format is cell-based, mouse. The note with it: compared with vehicle.
[2] abbreviates: LLC-bearing mice, 300 µg i.v. 5 days/week from day 6-7, vs vehicle.

The text below walks through data of patent publication EP4417616A1, “LXR ANTAGONISTS” (Ospedale San Raffaele S.r.l., priority 2023, dated 2024).

“Also recorded” adds a separate entry of the source.

Method for RMA lymphoma: Analysis of tumor infiltrating cells by flow cytometry. […] Tumors collected 7, 10, 12 or 14 days after injection were cut into small fragments and digested with Liberase TL (66 µg/ml, Roche) and DNAse I (150 µg/ml, Roche) for 25-30 minutes at 37 °C. Digested tissues were filtered by using a 75 µm diameter cell strainer. Single cell suspensions were stained with Live/Dead Violet kit reagents (Molecular Probes) for 30 minutes at 4°C. After washing, the cells were incubated for 5-10 minutes at RT with Fc-blocking solution (Anti-CD16/32, 10 µg/ml mouse Fc Block, BD) and then stained with various antibodies incubated at 4°C for 20 minutes. […] CD209a (5H10), CCR7 (4b12) and F4/80 (BM8) were from eBioscience. Rat IgG, Rat IgG2a, Rat IgG2b, Rat IgM and Hamster isotype control mAbs were used as controls (Biolegends and BD Biosciences). For intracellular staining, cells were incubated with PMA (100 ng/ml) and ionomycin (500 ng/ml) in the presence of 10 µg/ml of Brefeldin for 4 hours. Cells were then fixed using the IC Fixation buffer (eBioscience), permeabilized with 1x Permeabilization buffer (eBiosciences) and stained with anti-IFNy mAb. Samples were run by FACSCanto flow cytometer and analyzed by FlowJo software gating on live cells. FACS sorting was performed by using the FACSAria Fusion (BD)
Tumor challenge experiments. C57BL/6 mice were injected subcutaneously with LLC-Mock (1 ×10^6), LLC-SULT2B1b (1 ×10^6), RMA (2 ×10^5), or B16F1-OVA (2 ×10^5) tumor cells. […] Tumor size was evaluated by measuring perpendicular diameters by a caliper every 2-3 days. Data are reported as the average tumor volume ± SD. In selected experiments tumors were injected in Ccr2^-/-mice.
Treatment of tumor-bearing mice with LXR antagonists alone or with immunotherapy. Tumor-bearing mice were treated with 25-HC-3S or PFM037 6-7 days after tumor challenge. After 6-7 days, mice were randomly assigned to either treatment or vehicle groups. Mice were injected with 300 µg of either compound given i.v. for 5 days/week. […] B16F1-OVA-bearing mice were treated with 400 µg of PFM037 for 5 days/week. For controls of mAb experiments, mice were injected with 250 µg of rat IgG2a isotype control antibody. […] Tumors were collected and measured 14 days after tumor challenge.

`CC(C)CC[C@@H](O)[C@@H](C)[C@H]1CC[C@H]2[C@@H]3CC=C4C[C@@H](O)CC[C@]4(C)[C@H]3CC[C@]12C` [22R-HC]: the luciferase activity entry at LXRβ-LBD and on LXRα-LBD was “induced luciferase activity” throughout.
With `CC(C)CC[C@H](O)[C@@H](C)[C@H]1CC[C@H]2[C@@H]3CC=C4C[C@@H](O)CC[C@]4(C)[C@H]3CC[C@]12C` [22S-HC, 22S-hydroxycholesterol], the “antagonism of LXRα activation induced by 22R-HC” value at LXRα is reported as “does not antagonize; also recorded: did not antagonize”.
`C[C@H](CCCC(C)(C)O)[C@H]1CC[C@H]2[C@@H]3CC=C4C[C@@H](OS(=O)(=O)O)CC[C@]4(C)[C@H]3CC[C@]12C` [25-HC-3S, 25-Hydroxycholesterol-3-sulfate, reference compound]: in experiment [1] (setting [2]), the “absolute numbers of tumor-infiltrating mono-DCs” value is reported as “Higher” and the tumor growth result was “delay of tumor growth”. Moreover, the “numbers of tumor-infiltrating mono-DCs” value in the experiment with RMA lymphoma is “Higher”. In addition, the tumor growth entry in the experiment on RMA lymphoma (tumor weight at sacrifice) is on record as “tumor growth control”. Also, at LXRα, the IC50 came out at 12.7 µM and the “antagonism of LXRα activation induced by 22R-HC” value is listed as “antagonized the LXRα activity in a dose-dependent manner”. Moreover, the “in vitro growth of LLC tumor cells” value in the experiment with LLC tumor cells was “grew in a similar manner”.
For the molecule `C[C@@H]([C@H]1CC[C@H]2[C@@H]3CC=C4C[C@@H](O)CC[C@]4(C)[C@H]3CC[C@]12C)[C@@H](O)Cc1ccccc1` [PFM046, (22S)-23-Phenyl-24-norchol-5-en-3β,22-diol], the tumor growth result in experiment [1] (established LLC tumors, 300 µg/mouse every other day, Fig. 24B) is on record as “able to control LLC tumor growth; also recorded: controls tumor growth”.
